According to the supplement of paper PMC11208160:

Experiment: recombinant UMI read abundance after kanamycin selection (control-corrected) (log10(CPM+1)); higher = more efficient recombination; extreme values may be limits of the assay; sequences stand for … in AGTGCAGAGAAAATCGGCCAGTTTTCTCTGCCTGCAGTCCGCATGCCGTGGGACCCCTTGGGTTCTAACCTGTTGCCTAGATTTATGCAGCGGACTGCCTTTCTCCCAAAGTGATAAACCGG…AGGTTGGTTTCACT; site = the 11-nt donor
Outline: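 Two replicates each of selected and unselected plating were used in this pooled Escherichia coli screen of donor and donor-binding-loop pairs for the IS621 bridge recombinase. Selection was with IPTG (0.07 mM) and kanamycin. Counts of recombinant UMIs, amplified across the donor–target junction, were converted to CPM, averaged, scaled by control-derived factors and reported as log10(CPM+1).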
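Also: IS621 bridge recombinase in Escherichia coli cells against a fixed T5 target plasmid.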

Sequence	recombinant UMI read abundance (log10)
CTTCTCTCATGGACCGGTTTTCCCGGTAATCCGTATTTGTA (site CTTCTCTCTCA)	0.552
CTTCTCTCATGGACCGGTTTTCCCGGTAATCCGTATTTGTA (site CTTCTCTCTGA)	0.448
CTTCTCTCATGGACCGGTTTTCCCGGTAATCCGTATTTGTA (site CTTCTCTCTTA)	2.28
CTTCTCTCATGGACCGGTTTTCCCGGTAATCCGTATTTGTA (site CTTCTCTCTTC)	0.278
CTTCTCTCATGGACCGGTTTTCCCGGTAATCCGTATTTGTA (site CTTCTCTCTTG)	0.558
CTTCTCTCATGGACCGGTTTTCCCGGTAATCCGTATTTGTA (site CTTCTCTCTTT)	0.676
CTTCTCTCATGGACCGGTTTTCCCGGTAATCCGTATTTGTA (site CTTCTGTCTTA)	0.00544
CTTCTCTCATGGACCGGTTTTCCCGGTAATCCGTATTTGTA (site CTTCTTTCTTA)	0
CTTCTCTCATGGACCGGTTTTCCCGGTAATCCGTATTTGTA (site CTTGTCTCTTA)	0.00827
CTTCTCTCATGGACCGGTTTTCCCGGTAATCCGTATTTGTA (site CTTTTCTCTTA)	0
CTTCTCTCATGGACCGGTTTTCCCGGTAATCCGTATTTGTA (site GTTCTCTCTTA)	0.0236
CTTCTCTCATGGACCGGTTTTCCCGGTAATCCGTATTTGTA (site TTTCTCTCTTA)	0.396
CTTCTCTCATGGACCGGTTTTCCCGGTAATCCGTATTTGTG (site CTTCTCTCTAA)	0.0117
CTTCTCTCATGGACCGGTTTTCCCGGTAATCCGTATTTGTG (site CTTCTCTCTCA)	0.154
CTTCTCTCATGGACCGGTTTTCCCGGTAATCCGTATTTGTG (site CTTCTCTCTGA)	0
CTTCTCTCATGGACCGGTTTTCCCGGTAATCCGTATTTGTG (site CTTCTCTCTTA)	0
CTTCTCTCATGGACCGGTTTTCCCGGTAATCCGTATTTGTT (site CTTCTCTCTAA)	2.22
CTTCTCTCATGGACCGGTTTTCCCGGTAATCCGTATTTGTT (site CTTCTCTCTCA)	0.0142
CTTCTCTCATGGACCGGTTTTCCCGGTAATCCGTATTTGTT (site CTTCTCTCTGA)	0
CTTCTCTCATGGACCGGTTTTCCCGGTAATCCGTATTTGTT (site CTTCTCTCTTA)	0.757
CTTCTGTCATGGACCGGTTTTCCCGGTAATCCGTATTTGTA (site CTTCTATCTTA)	2.41
CTTCTGTCATGGACCGGTTTTCCCGGTAATCCGTATTTGTA (site CTTCTCTCTTA)	0.00482
CTTCTGTCATGGACCGGTTTTCCCGGTAATCCGTATTTGTA (site CTTCTGTCTTA)	2.01
CTTCTGTCATGGACCGGTTTTCCCGGTAATCCGTATTTGTA (site CTTCTTTCTTA)	0
CTTCTTTCATGGACCGGTTTTCCCGGTAATCCGTATTTGAC (site CTTCTTTCTGT)	0

Sequence	recombinant UMI read abundance (log10)
CTTCTTTCATGGACCGGTTTTCCCGGTAATCCGTATTTGTA (site CTTCTATCTTA)	0.00989
CTTCTTTCATGGACCGGTTTTCCCGGTAATCCGTATTTGTA (site CTTCTCTCTTA)	0
CTTCTTTCATGGACCGGTTTTCCCGGTAATCCGTATTTGTA (site CTTCTGTCTTA)	0.00353
CTTCTTTCATGGACCGGTTTTCCCGGTAATCCGTATTTGTA (site CTTCTTTCTTA)	0
CTTGGACCATGGACCGGTTTTCCCGGTAATCCGTATTTGTT (site CTTGGACCTAA)	0.00553
CTTGGATCATGGACCGGTTTTCCCGGTAATCCGTATTTGAC (site CTAGTATCTGT)	0
CTTGGATCATGGACCGGTTTTCCCGGTAATCCGTATTTGAC (site CTTGGATCTGT)	0
CTTGGATCATGGACCGGTTTTCCCGGTAATCCGTATTTGCA (site CTTGGATCTTG)	2.59
CTTGGCCCATGGACCGGTTTTCCCGGTAATCCGTATTTGTA (site CTTGGCCCTTA)	0.0132
CTTGTATCATGGACCGGTTTTCCCGGTAATCCGTATTTGAT (site CTAGTATCTGT)	0
CTTGTATCATGGACCGGTTTTCCCGGTAATCCGTATTTGAT (site CTTGTATCTAT)	1.29
CTTGTCTCATGGACCGGTTTTCCCGGTAATCCGTATTTGAA (site CTTGTCTCTTT)	1.85
CTTGTGGCATGGACCGGTTTTCCCGGTAATCCGTATTTGGA (site CTTGTGGCTTC)	0.306
CTTGTGTCATGGACCGGTTTTCCCGGTAATCCGTATTTGAC (site CTAGTATCTGT)	0
CTTGTGTCATGGACCGGTTTTCCCGGTAATCCGTATTTGAC (site CTTGTGTCTGT)	0.301
CTTTAAACATGGACCGGTTTTCCCGGTAATCCGTATTTGTA (site CTTTAAACTTA)	1.06
CTTTACACATGGACCGGTTTTCCCGGTAATCCGTATTTGCT (site CTATACACTAG)	2.27
CTTTACACATGGACCGGTTTTCCCGGTAATCCGTATTTGCT (site CTCTACACTAG)	1.2
CTTTACACATGGACCGGTTTTCCCGGTAATCCGTATTTGCT (site CTGTACACTAG)	1.59
CTTTACACATGGACCGGTTTTCCCGGTAATCCGTATTTGCT (site CTTTACACTAG)	1.81
CTTTACACATGGACCGGTTTTCCCGGTAATCCGTATTTGGG (site CTTTACACTCC)	0.147
CTTTACGCATGGACCGGTTTTCCCGGTAATCCGTATTTGTT (site CTTTACGCTAA)	0.6
CTTTCGGCATGGACCGGTTTTCCCGGTAATCCGTATTTGTG (site CTTTCGGCTCA)	0.003
GAAAACGCATGGACCGGTTTTCCCGGTAATCCGTATTTGGA (site GAAAACGCTTC)	1.02
GAAACCTCATGGACCGGTTTTCCCGGTAATCCGTATTTGGG (site GAAACCTCTCC)	0.698

Sequence	recombinant UMI read abundance (log10)
GAACGTGCATGGACCGGTTTTCCCGGTAATCCGTATTTGTC (site GAACGTGCTGA)	2.1
GAAGAGTCATGGACCGGTTTTCCCGGTAATCCGTATTTGTT (site GAAGAATCTAA)	3.37
GAAGAGTCATGGACCGGTTTTCCCGGTAATCCGTATTTGTT (site GAAGACTCTAA)	0.941
GAAGAGTCATGGACCGGTTTTCCCGGTAATCCGTATTTGTT (site GAAGAGTCTAA)	2.91
GAAGAGTCATGGACCGGTTTTCCCGGTAATCCGTATTTGTT (site GAAGATTCTAA)	0.417
GAAGATTCATGGACCGGTTTTCCCGGTAATCCGTATTTGCT (site GAAGATTCTAA)	0.178
GAAGATTCATGGACCGGTTTTCCCGGTAATCCGTATTTGCT (site GAAGATTCTAC)	0
GAAGATTCATGGACCGGTTTTCCCGGTAATCCGTATTTGCT (site GAAGATTCTAG)	2.54
GAAGATTCATGGACCGGTTTTCCCGGTAATCCGTATTTGCT (site GAAGATTCTAT)	0
GAAGATTCATGGACCGGTTTTCCCGGTAATCCGTATTTGTC (site GAAGATTCTAA)	0.564
GAAGATTCATGGACCGGTTTTCCCGGTAATCCGTATTTGTC (site GAAGATTCTCA)	0
GAAGATTCATGGACCGGTTTTCCCGGTAATCCGTATTTGTC (site GAAGATTCTGA)	2.29
GAAGATTCATGGACCGGTTTTCCCGGTAATCCGTATTTGTC (site GAAGATTCTTA)	0.965
GAAGCATCATGGACCGGTTTTCCCGGTAATCCGTATTTGCA (site GAAGCATCTTG)	2.67
GAAGCGTCATGGACCGGTTTTCCCGGTAATCCGTATTTGTA (site GAAGCGTCTTA)	2.88
GAAGGGTCATGGACCGGTTTTCCCGGTAATCCGTATTTGTT (site GAAGGGTCTAA)	2.74
GAAGTAGCATGGACCGGTTTTCCCGGTAATCCGTATTTGGG (site GAAGTAGCTCC)	0.618
GAAGTCGCATGGACCGGTTTTCCCGGTAATCCGTATTTGCG (site GAAGTCGCTCG)	0.562
GAAGTCGCATGGACCGGTTTTCCCGGTAATCCGTATTTGCG (site GCAGTCGCTCG)	0.0126
GAAGTCGCATGGACCGGTTTTCCCGGTAATCCGTATTTGCG (site GGAGTCGCTCG)	0.0249
GAAGTCGCATGGACCGGTTTTCCCGGTAATCCGTATTTGCG (site GTAGTCGCTCG)	0.023
GAAGTTTCATGGACCGGTTTTCCCGGTAATCCGTATTTGTT (site GAAGATTCTAA)	0
GAAGTTTCATGGACCGGTTTTCCCGGTAATCCGTATTTGTT (site GAAGCTTCTAA)	0.43
GAAGTTTCATGGACCGGTTTTCCCGGTAATCCGTATTTGTT (site GAAGGTTCTAA)	0
GAAGTTTCATGGACCGGTTTTCCCGGTAATCCGTATTTGTT (site GAAGTTTCTAA)	1.76
